Experiments:
Assay type in all cases: in vivo
[1] = test system: Solanum nigrum (SOLNI); test: Example B post-emergence herbicidal test, glasshouse; details: 312 h, rate 1000 g/ha, evaluated after 13 days, read-out: Post-Emergence Activity SOLNI (100=total damage to plant; 0=no damage to plant)
Description: (§1) Seeds of a variety of test species were sown in standard soil in pots. After cultivation for one day (pre-emergence) or after 8 days cultivation (post-emergence) under controlled conditions in a glasshouse (at 24/16° C., day/night; 14 hours light; 65% humidity), the plants were sprayed with an aqueous spray solution derived from the formulation of the technical active ingredient in acetone/water (50:50) solution containing 0.5% Tween 20 (polyoxyethelyene sorbitan monolaurate, CAS RN 9005-64-5). The test plants were then grown in a glasshouse under controlled conditions in a glasshouse (at 24/16° C., day/night; 14 hours light; 65% humidity) and watered twice daily. After 13 days for pre and post-emergence, the test was evaluated (100=total damage to plant; 0=no damage to plant). Test Plants: Alopecurus myosuroides (ALOMY), Avena fatua (AVEFA), Setaria faberi (SETFA), Echinochloa crus-galli (ECHCG), Solanum nigrum (SOLNI) and Amaranthus retoflexus (AMARE)

[2] = test system: Amaranthus retoflexus (AMARE); test: as above; details: Amaranthus retroflexus, 312 h, evaluated after 13 days, read-out: Post-Emergence Activity AMARE (100=total damage to plant; 0=no damage to plant); for pest or weed control at 1000 g/ha: rate 1000 g/ha; for pest or weed control at 250 g/ha: rate 250 g/ha
Description: as §1

[3] = test system: Echinochloa crus-galli (ECHCG); test: as above; details: 312 h, evaluated after 13 days; for pest or weed control at 1000 g/ha: rate 1000 g/ha, read-out: Post-Emergence Activity ECHCG (100=total damage to plant; 0=no damage to plant); for pest or weed control at 250 g/ha: rate 250 g/ha, read-out: Post-Emergence Activity ECHGG (100=total damage to plant; 0=no damage to plant)
Description: as §1

[4] = test system: Alopecurus myosuroides (ALOMY); test: as above; details: 312 h, evaluated after 13 days, read-out: Post-Emergence Activity ALOMY (100=total damage to plant; 0=no damage to plant); for pest or weed control at 1000 g/ha: rate 1000 g/ha; for pest or weed control at 250 g/ha: rate 250 g/ha
Description: as §1

[5] = test system: Avena fatua (AVEFA); test: as above; details: 312 h, evaluated after 13 days, read-out: Post-Emergence Activity AVEFA (100=total damage to plant; 0=no damage to plant); for pest or weed control at 1000 g/ha: rate 1000 g/ha; for pest or weed control at 250 g/ha: rate 250 g/ha
Description: as §1

[6] = test system: Setaria faberi (SETFA); test: as above; details: 312 h, evaluated after 13 days; for pest or weed control at 1000 g/ha: rate 1000 g/ha, read-out: Post-Emergence Activity SETFA (100=total damage to plant; 0=no damage to plant); for pest or weed control at 250 g/ha: rate 250 g/ha, read-out: Post-Emergence Activity SEFTA (100=total damage to plant; 0=no damage to plant)
Description: as §1

[7] = test system: Solanum nigrum (SOLNI); test: Example B pre-emergence herbicidal test, glasshouse; details: rate 1000 g/ha, evaluated after 13 days, 100=total damage to plant, 0=no damage to plant
Description: as §1

[8] = test system: Amaranthus retoflexus (AMARE); test: as above; details: Amaranthus retroflexus, 312 h, evaluated after 13 days, 100=total damage to plant, 0=no damage to plant; for pest or weed control at 250 g/ha: rate 250 g/ha
Description: as §1

[9] = test system: Echinochloa crus-galli (ECHCG); test: as above; details: evaluated after 13 days, 100=total damage to plant, 0=no damage to plant; for pest or weed control at 250 g/ha: Echinochloa crus-galli, 312 h, rate 250 g/ha, read-out: Pre-Emergence Activity ECHGG
Description: as §1

[10] = test system: Alopecurus myosuroides (ALOMY); test: as above; details: 312 h, evaluated after 13 days, 100=total damage to plant, 0=no damage to plant; for pest or weed control at 250 g/ha: rate 250 g/ha
Description: as §1

[11] = test system: Avena fatua (AVEFA); test: as above; details: 312 h, evaluated after 13 days, 100=total damage to plant, 0=no damage to plant; for pest or weed control at 250 g/ha: rate 250 g/ha
Description: as §1

[12] = test system: Setaria faberi (SETFA); test: as above; details: evaluated after 13 days, 100=total damage to plant, 0=no damage to plant; for pest or weed control at 250 g/ha: Setaria faberi, 312 h, rate 250 g/ha, read-out: Pre-Emergence Activity SEFTA
Description: as §1

SMILES | pest or weed control at 1000 g/ha [1] [%] | pest or weed control at 1000 g/ha [2] [%] | pest or weed control at 1000 g/ha [3] [%] | pest or weed control at 1000 g/ha [4] [%] | pest or weed control at 1000 g/ha [5] [%] | pest or weed control at 1000 g/ha [6] [%] | pest or weed control at 250 g/ha [8] [%] | pest or weed control at 250 g/ha [9] [%] | pest or weed control at 250 g/ha [10] [%] | pest or weed control at 250 g/ha [11] [%] | pest or weed control at 250 g/ha [12] [%] | pest or weed control at 250 g/ha [2] [%] | pest or weed control at 250 g/ha [3] [%] | pest or weed control at 250 g/ha [4] [%] | pest or weed control at 250 g/ha [5] [%] | pest or weed control at 250 g/ha [6] [%] | further results
Cc1sc(-c2ccc(Cl)c(C(F)(F)F)c2)nc1C1C(=O)C(C)(C)OC(C)(C)C1=O [Compound T15] | 0 | 0 | 70 | 40 | 0 | 0 | – | – | – | – | – | – | – | – | – | – | –
COC(=O)c1ccc(-c2cc(C3C(=O)C(C)(C)OC(C)(C)C3=O)c(C)s2)cc1 [Compound T20] | 0 | 0 | 0 | 0 | 0 | 10 | – | – | – | – | – | – | – | – | – | – | Pre-Emergence Activity SOLNI [7]: 70; pest or weed control at 1000 g/ha ([8]; rate 1000 g/ha): 80%; Pre-Emergence Activity ECHCG ([9]; rate 1000 g/ha): 0; pest or weed control at 1000 g/ha ([10]; rate 1000 g/ha): 30%; pest or weed control at 1000 g/ha ([11]; rate 1000 g/ha): 0%; Pre-Emergence Activity SETFA ([12]; rate 1000 g/ha): 0
Cc1sc(-c2ccc([S+](C)[O-])cc2)nc1C1C(=O)C(C)(C)OC(C)(C)C1=O (stereo not shown) [Compound T68] | – | – | – | – | – | – | 0 | 20 | 0 | 0 | 20 | 0 | 80 | 0 | 0 | 70 | –
CCc1sc(-c2ccc(SC)cc2)nc1C1C(=O)C(C)(C)OC(C)(C)C1=O [Compound T69] | – | – | – | – | – | – | 0 | 20 | 0 | 0 | 20 | 0 | 100 | 60 | 40 | 90 | –
Cc1sc(-c2ccc(OC(F)F)cc2Cl)nc1C1C(=O)C(C)(C)OC(C)(C)C1=O [Compound T70] | – | – | – | – | – | – | 0 | 70 | 30 | 0 | 70 | 0 | 90 | 70 | 10 | 90 | –
Cc1cnc(-c2ccc(Cl)cc2)nc1C1C(=O)C(C)(C)OC(C)(C)C1=O [Compound T71, 4-[2-(4-chlorophenyl)-5-methylpyrimidin-4-yl]-2,2,6,6-tetramethylpyran-3,5-dione] | – | – | – | – | – | – | 0 | 60 | 20 | 0 | 50 | 0 | 90 | 20 | 40 | 90 | –
